Earlier results, collected in US12303597B2, “Naloxone formulations for sublingual and/or buccal administration” (Pharmaceutical Productions, Inc., priority 2019, dated 2025).
Structures can show the parent of a compound that is named as a salt. Where two headings read alike, the source gives them in different places.

SMILES	solubility in water	solubility in water (hydrochloride)
C=CCN1CC[C@]23c4c5ccc(O)c4O[C@H]2C(=O)CC[C@@]3(O)[C@H]1C5 [naloxone base, 17-allyl-4,5α-epoxy-3,14-dihydroxymorphinan-6-one]	insoluble in water	–
C=CCN1CC[C@]23c4c5ccc(O)c4O[C@H]2C(=O)CC[C@@]3(O)[C@H]1C5 [Naloxone hydrochloride]	–	soluble in water
